# Where a name gives a salt, the structure may show the parent alone.
# How the values were obtained:
# [1] = FIG. 6B
# Excerpt: Table printed on a drawing sheet, FIG. 6B
# Footnotes: *N=2 with Animal 2 excluded.
# First reader's note: Each Cmax and AUC0-t cell holds the value together with its SD; the sheet prints no units for Cmax or AUC0-t.
# [2] = Photostability of alternative salt forms of lanreotide and TBR-760; assay type: physicochemical; conditions: 1.2 million lux hours visible light or 200 watt hours/square meter UV light, versus control
# Excerpt: (§1) In order to evaluate the light sensitivity and stability of TBR-760 chimeric peptide salts, all five salt forms were exposed to ultraviolet (UV) and visible light according to International Council for Harmonisation of Technical Requirements for Pharmaceuticals for Human Use (ICH) guideline Q1B for photostability testing. In brief, a Caron 6540-1 photostability chamber unit with separate UV and light chambers was used for the studies. Visible light exposure was 1.2 million lux hours and UV exposure was 200 watt hours/square meter.
# Photostability of lanreotide acetate, lanreotide bromide, lanreotide chloride, TBR-760 acetate, TBR-760 bromide and TBR760 chloride was tested according to the methods of Example 7. Four samples were prepared for each salt form: one control for each of the UV and visible light exposure conditions (controls isolated from light) and one sample for exposure to each of the UV and visible light conditions. For each sample, 2-5 mg of the salt was weighed into 3 mL clear serum vials and stoppered. Vials containing control samples were wrapped in aluminum foil.
# Following exposure to visible and UV light, all lanreotide and TBR-760 salts were analyzed by UPLC as described in Example 7.
# [3] = Thermostability of alternative salt forms of lanreotide and TBR-760 (UPLC); assay type: physicochemical
# Procedure: (§2) Each TBR-760 salt was further evaluated for thermolytic stability over time by setting up three different exposure conditions (25° C. at 60% relative humidity (RH); 40° C. at 75% RH; or 60° C. with open and closed container systems (open dish/closed dish). Approximately 50 mg of each salt form was weighed in a nitrogen-flushed glove box for use in the studies. All samples were stored at −20° C. in a good laboratory practice (GLP) freezer both before and after exposure to the indicated conditions.
# (§3) The stability of each salt form was assessed by monitoring the post-exposure drug peak purity and by evaluating the post-exposure visual appearance of the salt. The samples were removed from the exposure conditions and allowed to equilibrate to ambient conditions for 15-20 mins. An appropriate amount of each sample was weighed for analysis and dissolved in diluent (deionized water containing 0.1% TFA) to obtain a stock concentration of 1 mg/mL. The stock solution was then diluted to 0.125 mg/mL in an HPLC vial using diluent and the samples were run on a Waters Acquity UPLC system using the parameters shown in Table 4.
# We conducted thermostability studies of lanreotide acetate substantially as described in Example 6. These experiments confirmed that lanreotide acetate is […] when exposed to increasing temperature and humidity conditions over time (FIG. 45). […] (FIG. 45). This degree of thermal and humidity instability is disfavored for a pharmaceutical agent, particularly one intended for patient self-administration at home.
# To determine whether a thermostable salt form of TBR-760 could be manufactured, a salt exchange was performed as described in Example 1 to generate bromide and chloride salts of TBR-760. Lanreotide bromide and lanreotide chloride salts were also generated and assessed for thermostability to evaluate the effect of the salt form on compound stability and to compare stability of lanreotide and TBR-760 of each salt.
# UPLC assays performed as described in Example 6 were further used to determine the number of degradants—and thus the number of impurities—in each sample. Results showing the purity assessment of each sample following thermostability studies are shown in FIGS. 48A-48B (lanreotide and TBR-760 acetate salts), 49A-49B (lanreotide and TBR-760 bromide salts), and 50A-50B (lanreotide and TBR-760 chloride salts).
# [4] = Thermogravimetric analysis (TGA) of TBR-760 salt forms; assay type: physicochemical; conditions: between 110° C. and 200° C.
# Procedure: Thermogravimetric analyses (TGA) were performed on all TBR-760 salt forms to evaluate thermal stability of each salt form. Studies were performed using a TGA-Q500 thermogravimetric analyzer (TA Instruments). The weight of each compound was measured while the temperature was increased at a ramp rate of 5.0° C. per minute from 25 to 400° C. […] The weight loss may be indicative of loss of adsorbed moisture, entrained solvent or volatile impurities. Decomposition of the compound appears to start at about 234° C. (sulfate salt), 245° C. (chloride salt), 252° C. (tosylate salt), and 255° C. (mesylate salt). For the acetate salt, a further ˜5% loss of weight between 110° C. and 200° C. was observed, indicating loss of volatile acetate ions over that temperature range (FIG. 8).
# [5] = Time and temperature stability of lyophilized TBR-760 salts in sealed glass vials (visual appearance, HPLC); assay type: physicochemical; conditions: for salt form degraded: sealed glass vials, HPLC
# Procedure: Lyophilized TBR-760 salts prepared as described above were assessed for stability by visual appearance and HPLC following initial production of the salt and following incubation of the salt at 20° C., 40° C., and 60° C. for 2, 4, and 8 weeks in sealed, glass vials. Changes in visual appearance of the salt were noted by evaluating the color of the substance following each incubation condition. Purity of the salt following each incubation condition was evaluated by HPLC. The number and quantity of degradation products were determined according to the number of absorbance peaks that resulted at different retention times and the size of the peaks.
# [6] = Solid state (thermolytic) stability of TBR-760 salt forms, open container, UPLC peak purity and appearance; assay type: physicochemical
# Procedure: as §2, §3
# [7] = Photostability of TBR-760 salt forms (ICH Q1B, visible and UV light), appearance and UPLC purity; assay type: physicochemical
# Excerpt: as §1
# Samples were placed in clear, sealed vials and stored in the appropriate chamber alongside dark controls in amber colored vials wrapped in aluminum foil. Control samples were stored in sealed amber vials at −20° C. The appearance of exposed samples was examined visually before being analyzed via UPLC.
# [8] = 25° C. at 60% RH, open container
# [9] = 40° C. at 75% RH, open container
# [10] = UPLC peak purity, 25° C. at 60% RH, open container
# [11] = UPLC peak purity, 40° C. at 75% RH, open container
# [12] = UPLC peak purity, 60° C., open dish
compound,measurement,setting,value
CCCN1C[C@H](CSCC(=O)NCCCC[C@@H](NC(=O)CSC[C@@H]2C[C@@H]3c4cccc5[nH]cc(c45)C[C@H]3N(CCC)C2)C(=O)N[C@H]2CSSC[C@@H](C(=O)N[C@H](C(N)=O)[C@@H](C)O)NC(=O)[C@H](CC)NC(=O)[C@H](CCCCN)NC(=O)[C@@H](Cc3c[nH]c4ccccc34)NC(=O)[C@H](Cc3ccc(O)cc3)NC2=O)C[C@@H]2c3cccc4[nH]cc(c34)C[C@H]21 [TBR-760 Acetate*],Tmax (median in hr),[1],24 h
CCCN1C[C@H](CSCC(=O)NCCCC[C@@H](NC(=O)CSC[C@@H]2C[C@@H]3c4cccc5[nH]cc(c45)C[C@H]3N(CCC)C2)C(=O)N[C@H]2CSSC[C@@H](C(=O)N[C@H](C(N)=O)[C@@H](C)O)NC(=O)[C@H](CC)NC(=O)[C@H](CCCCN)NC(=O)[C@@H](Cc3c[nH]c4ccccc34)NC(=O)[C@H](Cc3ccc(O)cc3)NC2=O)C[C@@H]2c3cccc4[nH]cc(c34)C[C@H]21 [TBR-760 Mesylate],Tmax (median in hr),[1],30 h
CCCN1C[C@H](CSCC(=O)NCCCC[C@@H](NC(=O)CSC[C@@H]2C[C@@H]3c4cccc5[nH]cc(c45)C[C@H]3N(CCC)C2)C(=O)N[C@H]2CSSC[C@@H](C(=O)N[C@H](C(N)=O)[C@@H](C)O)NC(=O)[C@H](CC)NC(=O)[C@H](CCCCN)NC(=O)[C@@H](Cc3c[nH]c4ccccc34)NC(=O)[C@H](Cc3ccc(O)cc3)NC2=O)C[C@@H]2c3cccc4[nH]cc(c34)C[C@H]21 [TBR-760 Tosylate],Tmax (median in hr),[1],30 h
"CCCN1C[C@H](CSCC(=O)NCCCC[C@@H](NC(=O)CSC[C@@H]2C[C@@H]3c4cccc5[nH]cc(c45)C[C@H]3N(CCC)C2)C(=O)N[C@H]2CSSC[C@@H](C(=O)N[C@H](C(N)=O)[C@@H](C)O)NC(=O)[C@H](CC)NC(=O)[C@H](CCCCN)NC(=O)[C@@H](Cc3c[nH]c4ccccc34)NC(=O)[C@H](Cc3ccc(O)cc3)NC2=O)C[C@@H]2c3cccc4[nH]cc(c34)C[C@H]21 [TBR-760 acetate, Dop2-D-Lys(Dop2)-cyclo[Cys-Tyr-D-Trp-Lys-Abu-Cys]-Thr-NH2]",visible appearance after exposure to visible and UV light,[2],from a white salt (control) to a yellow/brown salt
same,compound degraded,[3]; 4 weeks at 60° C. and ambient humidity,greater than 5%
same,thermostability in words,"[3]; increasing temperature and humidity (25° C./60% RH, 40° C./75% RH, 60° C.) up to 4 weeks",does not maintain stability
same,TGA further loss of weight,[4],approximately 5%
same,change in visual appearance,[5]; 4 weeks at 60° C.,from a white powder to a yellow powder
same,salt form degraded,[5]; 60° C. for 4 weeks,9.9%
same,salt form degraded,[5]; 60° C. for 8 weeks,more than 16%
same,"Appearance, T = 2 wk",[6]; [8],White
same,"Appearance, T = 4 wk",[6]; [8],White
same,"Appearance, T = 3 d",[6]; [8],White
same,stability compared with the other salt forms,"[6]; 40° C. at 75% RH and 60° C., 2 and 4 weeks, listed as acetate salt",least stable of the salts tested
same,"Appearance, T = 2 wk",[6]; [9],White
same,"Appearance, T = 3 d",[6]; [9],White
same,"Appearance, T = 4 wk","[6]; 60° C., open dish",Pale Orange
same,"Appearance, T = 3 d","[6]; 60° C., open dish",White
same,"Purity, T = 2 wk",[6]; [10],98.16
same,"Purity, T = 4 wk",[6]; [10],98.09
same,"Purity, T = 3 d",[6]; [10],98.52
same,"Purity, T = 2 wk",[6]; [11],94.52
same,"Purity, T = 4 wk",[6]; [11],92.37
same,"Purity, T = 3 d",[6]; [11],98.4
same,"Purity, T = 2 wk",[6]; [12],89.7
same,"Purity, T = 4 wk",[6]; [12],82.32
same,"Purity, T = 3 d",[6]; [12],96.66
same,"Purity, Control","[6]; UPLC peak purity, control, stored at -20° C.",98.35
same,"Appearance, Control","[6]; control, stored at -20° C.",White
same,additional degradants in chromatogram versus control,"[6]; two weeks at 60° C., open dish, UPLC, listed as acetate salt",17
same,"Purity, UV-exposed","[7]; UPLC, UV 200 watt hours/square meter, clear sealed vial",96.16
same,"Purity, Control","[7]; UPLC, control in sealed amber vial at -20° C.",98.35
same,"Purity, Dark Ctrl-UV","[7]; UPLC, dark control in UV chamber",98.42
same,"Purity, Dark Crtl-Light","[7]; UPLC, dark control in visible light chamber",98.34
same,"Purity, Light-exposed","[7]; UPLC, visible light 1.2 million lux hours, clear sealed vial",92.14
same,"Appearance, UV-exposed","[7]; UV 200 watt hours/square meter, clear sealed vial, listed as TBR-760 acetate salt",white to a pale yellow-brown color
same,"Appearance, Control",[7]; control in sealed amber vial at -20° C.,white
same,"Appearance, Dark Ctrl-UV","[7]; dark control in UV chamber, amber vial wrapped in aluminum foil",white
same,"Appearance, Dark Crtl-Light","[7]; dark control in visible light chamber, amber vial wrapped in aluminum foil",white
same,degradation under dark conditions,"[7]; dark controls, UPLC",does not degrade
same,"degradation upon exposure to visible or UV light, in words","[7]; visible and UV light, UPLC",degraded
same,"Appearance, Light-exposed","[7]; visible light 1.2 million lux hours, clear sealed vial, listed as TBR-760 acetate salt",white to yellow-brown
